# Reference: US20120070493A1, “TARGETED MULTI-EPITOPE DOSAGE FORMS FOR INDUCTION OF AN IMMUNE RESPONSE TO ANTIGENS” (Selecta Biosciences, Inc., priority 2010, published 2012)
# Square brackets hold non-standard residues; d marks the D form. Ends that are not written are not given here.
# Experiments:
# [1] = tested on: CD4+/CD45RAlow/CD62Lhigh central memory T-cells (human PBMC); assay type: cell-based; details: for memory T-cell recall response, influenza epitopes: 5 PBMC donors, FIG. 14; for response of individual peptides and of heterodimeric peptides lacking a cathepsin cleavage site, compared with the response to this peptide: 4 donors, the comparators were the weaker ones, not the labelled peptide
# human PBMC = test: interferon gamma Elispot, peptide-stimulated PBMC; assay type: cell-based; details: 10 μM peptide; for memory T-cell response (IFN-γ Elispot spots, normalized to non-stimulated controls): 18 hours, 5 donors, FIG. 22; for number of donors showing a recall: out of 5 donors
# Method: The potency of single epitopes and chimeric epitopes have been evaluated by stimulating human PBMC with peptides in vitro for 18 hours and then analyzing the cells by Elispot. Briefly, whole blood was obtained from Research Blood Components (Cambridge). Blood was diluted in phosphate buffered saline (PBS) and then overlaid on top of Ficoll-paque premium (GE Healthcare) in a 50 mL tube. Tubes were spun for 30 minutes, and the transition phase PBMCs collected, diluted in PBS with 10% fetal calf serum (FCS) and spun for 10 minutes. Cells were resuspended in cell freezing media (Sigma) and immediately frozen at −80 C overnight. For long term storage, cells were transferred to liquid nitrogen. Cells were thawed as needed and resuspended in PBS 10% FCS, spun down and resuspended to 1×10^7 cells/mL in culture media (RPMI [cellgro]), supplemented with 10% heat inactivated fetal calf serum (Sigma) l-glutamine, penicillin and streptomycin).
# The Elispot assay was performed using an interferon gamma Elispot kit (Mabtech). Briefly the Elispot was performed by coating 96 well filter plates with an IFN-γ capture antibody, then blocked with complete culture media containing 10% FCS to prevent non-specific binding. PBMC (1×10^6 cells) were plated in the antibody pre-coated Elispot plates with or without 10 μM peptide. Positive control wells were stimulated with 10 μg/mL PHA. Elispot plates were incubated for 18 hours at 37° C. followed by coating with biotinylated anti-IFN-γ secondary antibody for 2 hours at room temperature. Elispot plates were then washed and IFN-γ spots developed using 3-amino-9-ethylcarbazole, dimethylformamide, and hydrogen peroxide in acetate buffer. IFN-γ positive Elispot counts were evaluated by an outside vendor (Zelnet) and the number of spots scored per 10 million cells.
# [2] = tested on: CD4+/CD45RAlow/CD62Lhigh central memory T-cells; test: dendritic cell/CD4 T-cell co-culture, multi-color intracellular cytokine analysis; assay type: cell-based, human; details: for co-expression of TNF-α and IFN-γ / co-expression of TNF-α and IL-4: multiple color flow cytometry, FIG. 9; for IFN-γ expression in peptide specific central memory T-cells / IL-4 expression in peptide specific central memory T-cells / TNF-α expression in peptide specific central memory T-cells: DC/CD4 co-culture with or without peptide, FIGS. 7 and 8
# Method: Early central memory T-cells express multiple cytokines (IL-2, TNF-α, IFN-γ) when re-activated with specific peptides, whereas committed effector memory T-cells are thought to selectively express IL-4 for TH2 committed effector memory, and IFN-γ for TH1 committed effector memory. The status of peptide activated memory T-cells was tested using multi-color intracellular cytokine analysis of dendritic cell/CD4 cell co-cultures.
# Human peripheral blood monocytes were isolated using negative-selection magnetic beads (Dynal) and cultured in the presence of GM-CSF and IL-4 for 1 week in order to induce differentiation into dendritic cells. Allogeneic CD4 T cells were isolated using magnetic bead separation (Dynal) and co-cultured in the presence of DCs in the presence or absence of peptide. The protocol for stimulation and analysis from that point is identical to that for PBMC described above in Example 2.
# [3] = tested on: MHC Class II (HLADP, HLADQ and HLADR alleles); details: previously described peptide, Virology 326 (2004) 220-230; cited from earlier work
substance,measurement,setting,value
TLLYVLFEVPMGLPILMQYIKANSKFIGI [AdVpTT830],effect of insertion of a cathepsin cleavage site on activity of the AdV epitope,"[1]; human PBMC, 4 μM peptide",eliminated activity of the AdV epitope
ILSIYSTVASSLALAIkvsvrLIFLARSALILR [ABW2kAAT],"memory T-cell recall response, influenza epitopes",[1]; 4 μM peptide,positive
VSTYMLTNSELLSLINDkvsvrAGFYHILNNPKASL [VSTkAGF],"memory T-cell response (IFN-γ Elispot spots, normalized to non-stimulated controls)",human PBMC,highest memory T-cell response
same,number of donors showing a recall,human PBMC,5 donors
VWLYNQIALQLKNHAkvsvrAGFYHILNNPKASL [VWLkAGF],"memory T-cell response (IFN-γ Elispot spots, normalized to non-stimulated controls)",human PBMC,highest memory T-cell response
same,number of donors showing a recall,human PBMC,5 donors
TLLYVLFEVkvsvrQSIALSSLMVAQ (TLLYVLFEV[dK][dV][dS][dV][dR]QSIALSSLMVAQ) [AdVkDTt],"response of individual peptides and of heterodimeric peptides lacking a cathepsin cleavage site, compared with the response to this peptide",[1]; 4 μM peptide,weaker response
ILMQYIKANSKFIGIQSIALSSLMVAQ [TT830DTt],co-expression of TNF-α and IFN-γ,[2],peptide induced co-expression
same,co-expression of TNF-α and IL-4,[2],not co-expression
ILMQYIKANSKFIGIQSIALSSLMVAQAIPLVGEL [TT830DT],IFN-γ expression in peptide specific central memory T-cells,[2],increased expression
same,IL-4 expression in peptide specific central memory T-cells,[2],not IL-4
same,TNF-α expression in peptide specific central memory T-cells,[2],increased expression
TLLYVLFEVkvsvr NNFTVSFWLRVPKVSASHLET (TLLYVLFEV[dK][dV][dS][dV][dR]NNFTVSFWLRVPKVSASHLET) [AdVkTT950],"response of individual peptides and of heterodimeric peptides lacking a cathepsin cleavage site, compared with the response to this peptide",[1]; 4 μM peptide,weaker response
ILMQYIKANSKFIGI QSIALSSLMVAQTLLYVLFEV (ILMQYIKANSKFIGIQSIALSSLMVAQTLLYVLFEV) [TT830DTAdV],number of donors showing a recall response,[1],4 donors
EKIVLLFAIVSLVKSDQICI [ABW9],"memory T-cell recall response, influenza epitopes",[1]; 4 μM peptide,not
ILMQYIKANSKFIGIPMGLPQSIALSSLMVAQ [TT830pmglpDTt],"effect of inclusion of a cathepsin cleavage site on the response, compared with TT830DTt","[1]; human PBMC, 4 μM peptide",enhanced the response
same,recall activity compared with identical peptide without cleavage site (TT830DT),"[1]; human PBMC, 4 μM peptide",better than a peptide identical except without a cleavage site (TT830DT)
same,recall activity compared with individual components TT830 and DT alone,"[1]; human PBMC, 4 μM peptide",more active than its individual components (TT830 and DT) alone
same,"number of activated central memory T-cells (percent CD62L+/IFN-γ+ cells, normalized to non-stimulated)","[1]; human PBMC, 4 μM peptide, 20 donors, FIG. 5",highest response
same,number of donors positive for memory T-cells responding to peptide,"[1]; out of 20 donors, positive if greater than 0.08% responding central memory T-cells, FIG. 6",20/20
same,IFN-γ expression in peptide specific central memory T-cells,[2],increased expression
same,IL-4 expression in peptide specific central memory T-cells,[2],not IL-4
same,TNF-α expression in peptide specific central memory T-cells,[2],increased expression
same,co-expression of TNF-α and IFN-γ,[2],peptide induced co-expression
same,co-expression of TNF-α and IL-4,[2],not co-expression
LIFLARSALILRkvsvrILSIYSTVASSLALAI [AATkABW2],"memory T-cell recall response, influenza epitopes",[1]; 4 μM peptide,positive
DFHFEVFNFVPCSI [RSVG162-175],Affinity (HLA Class II type bound),[3],(HLADP)
CSQRSKFLLMDALKLkvsvrLIFLARSALILR [AAWkAAT],"memory T-cell recall response, influenza epitopes",[1]; 4 μM peptide,positive
NAELLVALENQHTIkvsvrLIFLARSALILR (NAELLVALENQHTIKVSVRLIFLARSALILR) [3120tkAAT],"memory T-cell recall response, influenza epitopes",[1]; 4 μM peptide,positive
